Test results published in US9708314B2, “Heterocyclic amide compound” (NISSAN CHEMICAL INDUSTRIES, LTD., priority 2013, dated 2017).

Columns and labels:
Format in all cases: in vivo
[1] = test system: Echinochloa oryzacola Vasing.; test: Test Example 1: herbicidal activity, application before weed generation in submerged conditions; details: Application herbicide amount 320 g/ha; Seventeenth Table
In short: (§1)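 Water-diluted emulsion formulation is applied onto flood water (4 cm deep) covering alluvial soil on the day weed seeds are sown, after transplanting 2.5 leaf stage rice. Rates are expressed per hectare. Injury or control is graded 0–5 three weeks later.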

Monochoria vaginalis = test: as above; details: Application herbicide amount 320 g/ha; Seventeenth Table
In short: as §1

Scirpus juncoides = test: as above; details: Application herbicide amount 320 g/ha; Seventeenth Table
In short: as §1

[2] = test system: transplanted Oryza sativa; test: Test Example 1: effect on crop, application before weed generation in submerged conditions; details: Application herbicide amount 320 g/ha; Seventeenth Table
In short: as §1

[3] = test system: Beta vulgaris ssp. vulgaris; test: Test Example 4: effect on crop by application to foliage (diluvial soil, plastic box); details: Application herbicide amount 320 g/ha; effect on crop
In short: (§2)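 Greenhouse plants (25° C. to 30° C., 14 d, diluvial soil) receive a foliar spray of water-diluted emulsifiable formulation at defined g/ha. Grading after 3 weeks uses a six-step herbicidal-ratio scale, with 4 covering 70% to <90% and 1 covering 5% to <20%.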

Brassica campestris L. = test: as above; details: Application herbicide amount 320 g/ha; effect on crop
In short: as §2

Glycine max = test: as above; details: Application herbicide amount 320 g/ha; effect on crop
In short: as §2

Triticum aestivum = test: as above; details: Application herbicide amount 320 g/ha; effect on crop
In short: as §2

Zea mays = test: as above; details: Application herbicide amount 320 g/ha; effect on crop
In short: as §2

[4] = test system: directly sowed Oryza sativa; test: as above; details: Application herbicide amount 320 g/ha; effect on crop
In short: as §2

| SMILES | A: Echinochloa oryzicola Vasing. (herbicidal effect grade) [1] | C: Monochoria vaginalis (herbicidal effect grade) (Monochoria vaginalis) | B: Scirpus juncoides (herbicidal effect grade) (Scirpus juncoides) | a: transplanted Oryza sativa (effect on crop grade) [2] | f [3] | g (Brassica campestris L.) | c (Glycine max) | e (Triticum aestivum) | b (Zea mays) | d [4] |
| --- | --- | --- | --- | --- | --- | --- | --- | --- | --- | --- |
| Cc1nnc(NC(=O)c2cc(C)c(C(F)(F)F)n3c(C(C)C)nnc23)o1 [1-075] | 2 (Herbicidal ratio of 20% or more and less than 40%) | 2 (Herbicidal ratio of 20% or more and less than 40%) | 0 (Herbicidal ratio of 5% or less (almost no effect)) | 0 (Herbicidal ratio of 5% or less (almost no effect)) | 1 (Herbicidal ratio of 5% or more and less than 20%) | 1 (Herbicidal ratio of 5% or more and less than 20%) | 0 (Herbicidal ratio of 5% or less (almost no effect)) | 0 (Herbicidal ratio of 5% or less (almost no effect)) | 0 (Herbicidal ratio of 5% or less (almost no effect)) | 0 (Herbicidal ratio of 5% or less (almost no effect)) |
| Cc1nnc(NC(=O)c2ccc(C(F)(F)F)n3c(N(C)C)nnc23)o1 [1-076] | 5 (Herbicidal ratio of 90% or more (almost completely withered)) | 4 (Herbicidal ratio of 70% or more and less than 90%) | 4 (Herbicidal ratio of 70% or more and less than 90%) | 3 (Herbicidal ratio of 40% or more and less than 70%) | 5 (Herbicidal ratio of 90% or more (almost completely withered)) | 4 (Herbicidal ratio of 70% or more and less than 90%) | 3 (Herbicidal ratio of 40% or more and less than 70%) | 3 (Herbicidal ratio of 40% or more and less than 70%) | 0 (Herbicidal ratio of 5% or less (almost no effect)) | 3 (Herbicidal ratio of 40% or more and less than 70%) |
| C#CC[S+]([O-])c1nnc2c(C(=O)Nc3nnc(C)o3)ccc(C(F)(F)F)n12 (stereo not shown) [1-077] | 0 (Herbicidal ratio of 5% or less (almost no effect)) | 2 (Herbicidal ratio of 20% or more and less than 40%) | 0 (Herbicidal ratio of 5% or less (almost no effect)) | 0 (Herbicidal ratio of 5% or less (almost no effect)) | 3 (Herbicidal ratio of 40% or more and less than 70%) | 3 (Herbicidal ratio of 40% or more and less than 70%) | 0 (Herbicidal ratio of 5% or less (almost no effect)) | 0 (Herbicidal ratio of 5% or less (almost no effect)) | 0 (Herbicidal ratio of 5% or less (almost no effect)) | 3 (Herbicidal ratio of 40% or more and less than 70%) |
| CSC(C)c1nnc2c(C(=O)Nc3nnc(C)o3)ccc(C(F)(F)F)n12 (stereo not shown) [1-078] | 4 (Herbicidal ratio of 70% or more and less than 90%) | 3 (Herbicidal ratio of 40% or more and less than 70%) | 4 (Herbicidal ratio of 70% or more and less than 90%) | 4 (Herbicidal ratio of 70% or more and less than 90%) | 5 (Herbicidal ratio of 90% or more (almost completely withered)) | 4 (Herbicidal ratio of 70% or more and less than 90%) | 4 (Herbicidal ratio of 70% or more and less than 90%) | 4 (Herbicidal ratio of 70% or more and less than 90%) | 4 (Herbicidal ratio of 70% or more and less than 90%) | 4 (Herbicidal ratio of 70% or more and less than 90%) |
